Measurements published in patent US20080119530A1, “Method for treatment and prevention of ultraviolet light induced skin pathologies” (priority 2006, published 2008).

Columns and labels:
primary keratinocytes = experiment: BrdU incorporation (DNA synthesis) in cultured primary keratinocytes; type: cell-based, mouse
Text: Cell culture. […] Keratinocytes were transfected with Erbb2-targeted siRNA (32), Stealth RNAi Negative Control LO GC (Invitrogen, Carlsbad, Calif.), Cy3-conjugated Label IT RNAi Delivery Control (Mirus, Madison, Wis.) or sham transfection with TransIT-siQUEST Transfection Reagent (Mirus, Madison, Wis.). Plasmids with Cdc25a (Hassepass et al. 2003a) and EGFP (enhanced green fluorescent protein) cDNA were cotransfected with Lipofectamine Transfection Reagent (Invitrogen, Carlsbad, Calif.). Transfection efficiency was quantified by determining the proportion of the cells that incorporated the fluorescent Cy3-conjugated siRNA or GFP one day post-transfection. […]
(§1) Cell cycle. […] For in vitro analysis, keratinocytes were resuspended, fixed in 70% ethanol, resuspended in Vindelov's solution (3.5 mM Tris base, pH 7.6, 10 mM NaCl, 10 μg/ml Ribonuclease A, 75 μg/ml propidium iodide, 1.01l/ml IPEGAL), and analyzed on a FACSCalibur flow cytometer (Becton Dickinson, Franklin Lakes, N.J.). Cell cycle distributions were determined using ModFit LT 3.1 software (Verity Software House, Topsham, Me.). […]
Proliferation and apoptosis assays. Proliferation, survival and apoptosis were quantified in three replicate experiments. BrdU uptake was measured by a chemiluminescenit BrdU Cell Proliferation ELISA (Roche, Germany). […] MUH fluorescence from wells lacking cells was subtracted from all samples. […]

[1] = test system: platelet-derived growth factor receptor kinase
keratin 5, loricrin = experiment: Differentiation markers in UV-exposed skin; type: in vivo, mouse; settings: inhibition prior to UV irradiation
skin = experiment: Cell cycle analysis of skin sections by flow cytometry; type: in vivo, mouse; settings: inhibition prior to UV irradiation
Method: Flow cytometry. […] sections from paraffin embedded blocks were dewaxed with xylene, rehydrated and digested in PBS containing 0.5% pepsin (Sigma, St. Louis, Mo.). The nuclei were isolated by filtration and suspended in Vindelov's (56) solution reagent (3.5 mM tris base, pH 7.6, 10 mM NaCl, 10 μg/ml Ribonuclease A, 75 μg/ml PI, 1.0 μl/ml IPEGAL; (71)). At least 10,000 events from each sample were analyzed for flow cytometry on a FACSCalibur flow cytometer (Becton Dickinson, Franklin Lakes, N.J.). Data were acquired in the FL2 channel with a […] filter. Fluorescence signals were pulse processed and single cells identified using a FL2W versus FL2A plot. A histogram of FL2A was plotted for single cells and cell cycle distributions determined using ModFit LT 3.1 software (Verity Software House, Topsham, Me.).
as §1

COc1cc(/C=C(\C#N)C(N)=O)cc(CSc2nc3ccccc3s2)c1O [AG825]
BrdU incorporation (primary keratinocytes; by 12 h after UV irradiation): reduced to nearly zero | BrdU incorporation (primary keratinocytes; sham-irradiated keratinocytes): significantly reduced | fold higher IC50 for platelet-derived growth factor receptor kinase than for Erbb2 [1]: more than 100 fold | localization or expression of early (keratin 5) or late (loricrin) markers of differentiation (keratin 5, loricrin): did not alter | S-phase cells in skin (skin): increased
